Values of other authors in US20240082222A1, “4-CHLORO-N-[2-[(4-CHLOROPHENYL)METHYL]-3-OXO-1,2,4-THIADIAZOL-5-YL]BENZAMIDE FOR USE IN MEDICINE” (Betagenon AB, priority 2021, published 2024).

Key:
[1] = 1000 mg/day in suspension, day 28, patients with type-2 diabetes; cited from earlier work
[2] = mice, lumbar disc puncture and postoperative pain models; cited from earlier work

| SMILES | mean Cmax [1] [µg/mL] | treatment of pain (mechanical hypersensitivity) [2] |
| --- | --- | --- |
| O=C(Nc1nc(=O)n(Cc2ccc(Cl)cc2)s1)c1ccc(Cl)cc1 [compound of formula I, 4-chloro-N-[2-[(4-chlorophenyl)methyl]-3-oxo-1,2,4-thiadiazol-5-yl]benzamide] | 55 | effective at treating pain |
| CN(C)C(=N)N=C(N)N [metformin, reference compound] | – | effective at treating pain |
